Measured values as given in US20230219962A1, “PYRAZOLO[4,3-d]PYRIMIDINE DERIVATIVES AND METHODS OF USE THEREOF FOR THE TREATMENT OF CELLULAR PROLIFERATIVE DISORDERS” (Merck Sharp & Dohme LLC, priority 2020, published 2023).
pEC50: −log10 of the molar value.

Tests used:
hTLR7 = target: T1, hTLR7 (Homo sapiens, UniProt Q9NYK1); assay: Human TLR7 Reporter Assay; type: cell-based; conditions: HEK-Blue hTLR7 cells, 16 hours, normalized to CL097 (6 μM) and DMSO
T1 construct: host or cells: HEK-Blue hTLR7 cells (HEK293-derived, own knowledge)
T1 sequence (Q9NYK1 27-1049): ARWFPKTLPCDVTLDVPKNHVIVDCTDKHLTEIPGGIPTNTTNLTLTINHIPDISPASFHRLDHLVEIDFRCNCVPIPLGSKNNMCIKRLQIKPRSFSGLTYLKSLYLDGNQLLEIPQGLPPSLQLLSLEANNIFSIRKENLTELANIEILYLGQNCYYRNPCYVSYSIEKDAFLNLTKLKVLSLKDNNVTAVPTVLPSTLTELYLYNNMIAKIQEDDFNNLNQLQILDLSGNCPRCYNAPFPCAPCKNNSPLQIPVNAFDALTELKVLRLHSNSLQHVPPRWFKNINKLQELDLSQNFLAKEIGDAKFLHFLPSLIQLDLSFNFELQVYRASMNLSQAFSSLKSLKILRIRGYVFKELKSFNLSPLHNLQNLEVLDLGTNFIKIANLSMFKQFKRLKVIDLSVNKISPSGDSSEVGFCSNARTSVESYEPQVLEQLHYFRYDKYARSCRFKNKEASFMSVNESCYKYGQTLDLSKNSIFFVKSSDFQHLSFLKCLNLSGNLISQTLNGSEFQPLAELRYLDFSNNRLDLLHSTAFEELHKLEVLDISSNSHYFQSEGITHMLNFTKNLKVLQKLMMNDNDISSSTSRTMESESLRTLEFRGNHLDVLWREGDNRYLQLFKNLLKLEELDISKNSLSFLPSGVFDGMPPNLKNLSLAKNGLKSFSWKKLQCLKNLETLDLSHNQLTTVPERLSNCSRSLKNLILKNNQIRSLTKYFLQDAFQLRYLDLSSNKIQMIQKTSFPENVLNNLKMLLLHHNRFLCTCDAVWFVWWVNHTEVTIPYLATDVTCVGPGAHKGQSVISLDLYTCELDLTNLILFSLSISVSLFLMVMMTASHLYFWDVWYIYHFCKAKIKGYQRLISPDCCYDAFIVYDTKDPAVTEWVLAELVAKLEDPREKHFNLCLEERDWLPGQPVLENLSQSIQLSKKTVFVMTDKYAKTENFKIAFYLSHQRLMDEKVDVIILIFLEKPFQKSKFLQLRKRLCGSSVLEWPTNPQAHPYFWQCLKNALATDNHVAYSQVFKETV
In short: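 HEK-Blue hTLR7 reporter cells (20,000/well) incubated 16 h at 37 °C with 10-point 3-fold compound dilutions; SEAP read by absorbance at 620 nm. Effects normalized between CL097 (6 μM) and DMSO controls; EC50 from 4-parameter fit.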

hTLR8 = target: T2, hTLR8 (Homo sapiens, UniProt Q9NR97); assay: Human TLR8 Reporter Assay; type: cell-based; conditions: HEK-Blue hTLR8 cells, 16 hours, normalized to tl8-506 (1 μM) and DMSO
T2 construct: host or cells: HEK-Blue hTLR8 cells (HEK293-derived, own knowledge)
T2 sequence (Q9NR97 27-1041): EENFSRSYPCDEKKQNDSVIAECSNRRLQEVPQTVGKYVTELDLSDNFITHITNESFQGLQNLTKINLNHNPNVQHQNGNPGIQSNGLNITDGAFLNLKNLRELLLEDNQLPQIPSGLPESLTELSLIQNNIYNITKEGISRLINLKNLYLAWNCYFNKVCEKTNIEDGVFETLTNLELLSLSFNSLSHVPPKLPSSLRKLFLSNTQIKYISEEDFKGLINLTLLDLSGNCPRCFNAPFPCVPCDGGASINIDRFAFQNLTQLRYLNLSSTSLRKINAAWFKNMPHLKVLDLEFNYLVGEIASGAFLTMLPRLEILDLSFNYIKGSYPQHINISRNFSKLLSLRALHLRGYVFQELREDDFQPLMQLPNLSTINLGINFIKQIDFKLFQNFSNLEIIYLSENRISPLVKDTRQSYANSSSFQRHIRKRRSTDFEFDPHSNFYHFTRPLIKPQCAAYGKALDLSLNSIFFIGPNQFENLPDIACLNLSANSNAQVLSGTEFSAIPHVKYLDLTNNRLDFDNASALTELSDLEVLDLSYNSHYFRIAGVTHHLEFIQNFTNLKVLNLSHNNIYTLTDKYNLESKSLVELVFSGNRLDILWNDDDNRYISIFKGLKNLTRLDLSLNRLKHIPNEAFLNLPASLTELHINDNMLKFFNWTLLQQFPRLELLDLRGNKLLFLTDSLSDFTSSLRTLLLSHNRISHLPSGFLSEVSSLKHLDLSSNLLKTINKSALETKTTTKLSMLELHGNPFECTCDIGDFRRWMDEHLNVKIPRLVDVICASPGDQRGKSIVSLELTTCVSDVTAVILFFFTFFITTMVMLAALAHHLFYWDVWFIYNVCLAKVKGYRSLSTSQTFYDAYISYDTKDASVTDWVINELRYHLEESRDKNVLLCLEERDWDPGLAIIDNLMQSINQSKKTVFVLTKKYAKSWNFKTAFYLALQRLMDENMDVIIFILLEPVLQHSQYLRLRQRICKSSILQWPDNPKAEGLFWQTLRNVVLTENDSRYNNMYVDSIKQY
In short: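 HEK-Blue hTLR8 cells (20,000/well) incubated 16 h at 37 °C with 10-point 3-fold compound dilutions in HEK-Blue Detection medium; reporter read as absorbance at 620 nm. Effects normalized between DMSO and tl8-506 (1 μM); EC50 from 4-parameter fit.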

| Compound | pEC50 (hTLR7) | pEC50 (hTLR8) |
| --- | --- | --- |
| CCCCNc1nc(N)nc2cn(CCCCN)nc12 [Compound 42] | < 4.52 | 5.53 |
| CCCCNc1nc(N)nc2cn(Cc3ccc(CN4CCN(C(=O)C5CCC(CN6C(=O)C=CC6=O)CC5)CC4)cc3OC)nc12 (stereo not shown) [Compound 69] | 6.61 | 5.83 |
| CCC[C@@H](CO)Nc1nc(N)nc2cn(Cc3c(OC)cc(CN(C)CCCN)cc3OC)nc12 [Compound 210] | 4.70 | 4.81 |
| CCCC(C)Nc1nc(N)nc2cn(Cc3c(OC)cccc3OC)nc12 (stereo not shown) [Compound 91] | 7.45 | 6.54 |
| CCCCNc1nc(N)nc2cn(Cc3ccc(CN4CC(CNC)C4)cc3OC)nc12 [Compound 145] | 5.64 | 5.20 |
| CCCCNc1nc(N)nc2cn(Cc3ccc(C4CCNC4)cc3)nc12 (stereo not shown) [Compound 198] | 6.40 | 6.08 |
| CCC[C@@H](CO)Nc1nc(N)nc2cn(Cc3c(OC)cc(CN(C)CCN)cc3OC)nc12 [Compound 213] | 5.32 | 5.65 |
| CCCCNc1nc(N)nc2cn(Cc3ccc(C(C)N)cc3OC)nc12 (stereo not shown) [Compound 167] | 6.45 | 6.75 |
| COCCNc1nc(N)nc2cn(Cc3c(OC)cccc3OC)nc12 [Compound 46] | 6.45 | 5.96 |
| CCCCNc1nc(N)nc2cn(Cc3ccc(C(C)N(C)CCC)cc3OC)nc12 (stereo not shown) [Compound 240] | 7.29 | 5.96 |
| CCC[C@@H](CO)Nc1nc(N)nc2cn(Cc3c(OC)cc(CN(C)CCNC(=O)c4cccnc4)cc3OC)nc12 [Compound 218] | 5.20 | 5.83 |
| CCCCNc1nc(N)nc2cn(Cc3c(OC)ccc(CN)c3OC)nc12 [Compound 76] | 5.52 | 6.14 |
| CCCCNc1nc(N)nc2cn(Cc3c(C)cccc3OC)nc12 [Compound 39] | 6.62 | 6.13 |
| CCCCNc1nc(N)nc2cn(Cc3cc(CN4CCN(C(=O)C5CCC(CN6C(=O)C=CC6=O)CC5)CC4)ccc3OC)nc12 (stereo not shown) [Compound 71] | 6.57 | 5.52 |
| CCCCNc1nc(N)nc2cn(Cc3c(OC)cccc3OCCCC(=O)OC)nc12 [Compound 206] | 6.42 | 5.58 |
| CCCCNc1nc(N)nc2cn(Cc3ccnn3CC)nc12 [Compound 177] | 6.17 | 5.55 |
| CCC[C@@H](CO)Nc1nc(N)nc2cn(Cc3c(OC)cc(CN(C)C)cc3OC)nc12 [Compound 199] | 6.97 | 7.40 |
| C=CCN(C)Cc1cc(OC)c(Cn2cc3nc(N)nc(N[C@H](CO)CCC)c3n2)c(OC)c1 [Compound 161] | 7.37 | 7.04 |
| CCC[C@@H](CO)Nc1nc(N)nc2cn(Cc3c(OC)cc(CNC)cc3OC)nc12 [Compound 154] | 5.97 | 5.38 |
| CCCCNc1nc(N)nc2cn(Cc3c(OC)cc(CN)cc3OC)nc12 [Compound 66] | 6.31 | 6.70 |
| CCCCNc1nc(N)nc2cn(Cc3ccc(C4CNCCN4)cc3OC)nc12 (stereo not shown) [Compound 234] | 5.83 | 5.01 |
| CCCCNc1nc(N)nc2cn(Cc3ccc(C4CCNC4=O)cc3)nc12 (stereo not shown) [Compound 200] | 6.73 | 5.31 |
| CCCCNc1nc(N)nc2cn(Cc3c(OC)cc(N4CCNCC4)cc3OC)nc12 [Compound 64] | 6.29 | 6.46 |
